Reference: patent publication US8852601B2, “Method of stimulating growth and resistance to diseases of aquatic organisms” (Centro de Ingenieria Genetica y Biotecnologia, priority 2002, dated 2014)
Marks after values point to notes of the source that are not given here. Non-standard residues stand in square brackets, D forms with d. No end group written: not given here.

Tests used:
[1] = system: serum GH; assay: Serum GH levels in tilapia injected with GHRP-6 (ELISA); assay type: in vivo; conditions: 15 min after intraperitoneal injection, 0.1 μg/gbw
Experimental: (§1) Fifteen tilapias with average weight 71±28 g were used for the experiment. The GHRP-6 was injected with hexapeptide at 0.1 μg/gbw. The liver and blood samples were drawn before the treatment and 15 min, 30 min, 1 h and 6 h after the peptide injection (three animals per group). The serum and liver sample were collected and stored at −70° C. until used for total RNA isolation and Northern blot analysis. A serum sample was also taken before the treatment in all animals.
Serum GH levels were determined by ELISA using two monoclonal antibodies against tilapia GH (Muñoz et al, in preparation).

[2] = system: tilapia IGF mRNA; assay: Hepatic IGF mRNA levels in tilapia injected with GHRP-6 (Northern blot); assay type: in vivo; conditions: 0.1 μg/gbw
Experimental: as §1
Northern blot analysis was used to measure the relative IGF mRNA levels in tilapia injected with the peptide. Total RNA was purified from liver samples as described by Chomczynski and Sacchi (Chomczynski P, Sacchi N. Single step method of RNA isolation by acid guanidium thiocyanate-phenol-chloroform extraction. Anal Biochem 1987; 162:156-59). Twenty μg of RNA were fractionated on 1% formaldehyde agarose gels and transferred to nylon membranes (Hybond N, Amersham UK) and hybridized with a tilapia IGF-I cDNA probe and subsequently rehybridized with a human gliceraldehyde 3 phosphate dehydrogenase cDNA (GAPDH, kindly given by Dr. Bryan Williams, Cleveland Foundation, OH, USA) to normalize the signals. Hybridization signals were quantified by digital image processing of scanned gels with a Hewlett Packard Scanjet Plus scanner. Images were processed with the Bandleader computer program. […]

[3] = system: juvenile tilapia; assay: Growth promoting activity in juvenile tilapia, intraperitoneal injection; assay type: in vivo, Oreochromis aureus; conditions: intraperitoneal 0.1 μg/gbw twice a week, three weeks; P<0.05
Experimental: Juvenile hybrid tilapia (Oreochromis aureus) supplied by the Aquadique Aquaculture Station (Havana, Cuba) were acclimated in a 500 litters tank with re-circulating freshwater at 25° C. with constant photoperiod (14 hours light and 10 hours darkness) and fed with commercially prepared pellets (CENPALAB, Havana, Cuba). Daily rations equivalent to 5% of body weight were administered twice a day until they were used in the experiments.
GHRP-6 (BACHEM, Switzerland) was diluted in PBS and injected twice a week during three weeks at 0.1 μg per gram of fish body weight (gbw). The peptide was administered to a group of eight male tilapia with average body weight of 61±14.3 g and seven male tilapia with average body weight of 61.41±29.67 g were injected with PBS as a control group.
(§2) Body weight in grams was measured weekly. In all the experiments the animals were labeled with microchips (Stoelting Co. Wood Dale, U.S.A.).

[4] = system: juvenile tilapia; assay: Growth promoting activity in juvenile tilapia, oral intubation (non encapsulated and encapsulated peptide); assay type: in vivo, Oreochromis aureus
Experimental: as §2
GHRP-6 peptide was diluted in phosphate buffered saline (PBS) and administered through a plastic tube to the pharyngeal cavity to a group of seven male tilapia with average body weight 87.22±14.1 g. PBS was delivered to the control group (n=7, all male tilapia) with average weight 89.22±7.66 g. The treatment was done twice a week during three weeks at 0.1 μg/gbw. Body weight in grams was measured weekly. (FIG. 3)
For the encapsulation of peptide the capsules were obtained as previously reported by Knorr et al., 1988; using chitosan and alginic acid encapsulated peptide. The hexapeptide GHRP-6 was administered through a plastic tube to the pharyngeal cavity to seven male tilapia with average body weight 89.09±8.38 g. Polymer beads without peptide were administered to seven male tilapia with average weight 89.86±13.54 g as a control group. The treatment was performed twice a week at 0.14 μg/gbw. (FIG. 4)

[5] = system: tilapia; assay: Weigh of tilapia treated with GHRP-6 by immersion; assay type: in vivo, Oreochromis aureus; conditions: for Mean weigh ± DS: once a week for 45 days
Experimental: (§3) Tilapias (Oreochromis aureus) of 1.5 g of mean weigh were treated by immersion with two different doses of GHRP-6 (10 μg/100 ml and 100 μg/100 ml). A similar control group was treated with physiological solution.
(§4) In the experiment was measured the weigh (Table 1), biochemical blood parameters (Table 2), number of parasite in gill (Trichodinicos (Table 3) y Helmintos mongeneos (Table 4)) and humidity and protein concentration in muscle
(§5) Fifteen animals per group (3×) with mean weigh of 1 g were selected for the assay. In 9 tank of 40 liters were developed the experiment. One a week application was done for 45 days.
(§6) • Group I 10 μg/100 ml (Treatment 1) • Group II 100 μg/100 ml (Treatment 2) • Group III Control (Physiological solution)

[6] = system: protozoo Trichodina sp.; assay: Invasion intensity and extension of Trichodina sp. in tilapia treated by immersion; assay type: in vivo
Experimental: as §3, §4, §5, §6

[7] = system: Helmintos monogeneos; assay: Invasion intensity and extension of Helmintos monogeneos in the gill of tilapia treated by immersion; assay type: in vivo; conditions: for I: Invasion intensity: in the gill per fish
Experimental: as §3, §4, §5, §6

[8] = system: tilapia; assay: Humidity and protein concentration in muscle of tilapia treated by immersion; assay type: in vivo, Oreochromis aureus
Experimental: as §3, §4, §5, §6

[9] = system: shrimp Litopenaeus schmitti larvae; assay: Growth promoting activity in shrimp larvae treated by immersion; assay type: in vivo
Experimental: Three different doses of GHRP-6 were applied by immersion to groups or shrimp larvae. The application was made each three days. Four applications were made for each group, including one control group receiving bovine serum albumin (BSA). The treatment was made per 1 hour to a concentration of GHRP-6 per liter of seawater as follow: • Group 1: 0.001 mg/L • Group 2: 0.01 mg/L • Group 3: 0.1 mg/L • Group 4: 1 mg of BSA/L

[10] = system: larvae shrimp Litopeneaus schmitti; assay: Shrimp larvae treated by immersion in production conditions; assay type: in vivo, Litopenaeus schmitti; conditions: production condition, vs non-treated group
Source text: FIG. 8. Growth rate of larvae shrimp Litopeneaus schmitti in production conditions treated with GHRP-6 by immersion. The experiment was follow by six week. ***t-test p<0.001. Bars indicate standard error
In production condition the survival rate of the larvae was increased in 20% in the group treated with the GHRP-6 in comparison with the non-treated group. […] On the other hand the uniformity of the animals was higher in the group treated with the hexapeptide and the variation coefficient was lower in weigh and size (FIG. 8).

[11] = Grupo I, immersion 10 μg/100 mL
[12] = Grupo II, immersion 100 μg/100 mL
[13] = comparison II-III (100 μg/100 mL vs saline), significant
[14] = comparison III-I (saline vs 10 μg/100 mL), significant
[15] = comparison III-I (saline vs 10 μg/100 mL)
[16] = 0.1 mg/L immersion, statistically significant
[17] = 0.1 mg/L, four 1 hour immersions, each three days, vs BSA control

In the case of “His-D-Trp-Ala-Trp-D-Phe-Lys-NH2 (H[dW]AW[dF]K-NH2) [GHRP-6, known GH releasing hexapeptide (GH secretagogue), bought from BACHEM]”, the “serum GH levels” value [1] was “increased”, the “level of hepatic IGF mRNA” value ([2]; 30 min after intraperitoneal injection) was “increased significantly” and the “level of hepatic IGF mRNA” value ([2]; six hours after intraperitoneal injection) was “backing to the normal value”. The “growth (increase in growth rate) vs control” value [3] was “significantly stimulated growth”, the “body weight gain, encapsulated vs non encapsulated orally intubated treatment” value ([4]; comparison between both oral treatments, P<0.05) was “higher body weight gain” and the “body weight to the end of the treatment vs control” value ([4]; orally intubated encapsulated peptide) was “statistically differences in the body weight”. The “Mean weigh ± DS” value [5, 11] was 4.56 ± 1.07 g, the “Mean weigh ± DS” value [5, 12] was 4.54 ± 1.38 g and the “Statistically difference, mean weigh” value ([5]; comparison I-II (10 vs 100 μg/100 mL)) was 0.01454. For the same substance, the “Statistically difference, mean weigh” value [5, 13] was 1.072*, the “Statistically difference, mean weigh” value [5, 14] was 1.086* and the “E: Invasion extension” value [6, 11] was 100%. The “I: Invasion intensity” value [6, 11] was 7.73, the “E: Invasion extension” value [6, 12] was 84.6% and the “I: Invasion intensity” value [6, 12] was 2.80. The “Statistically difference, Trichodina sp. invasion” value ([6]; comparison I-II) was “(4.42)”, the “Statistically difference, Trichodina sp. invasion” value [6, 13] was “(5.84)*” and the “Statistically difference, Trichodina sp. invasion” value [6, 15] was “(1.42)”. The “E: Invasion extension” value [7, 11] was 34.7%, the “I: Invasion intensity” value [7, 11] was 0.39 and the “E: Invasion extension” value [7, 12] was 50%. The “I: Invasion intensity” value [7, 12] was 0.66, the “Statistically difference, Helmintos monogeneos invasion” value ([7]; comparison I-II) was “(0.304)” and the “Statistically difference, Helmintos monogeneos invasion” value ([7]; comparison II-III (100 μg/100 mL vs saline)) was “(0.521)”. For the same substance, the “Statistically difference, Helmintos monogeneos invasion” value [7, 14] was “(0.826)*”, the “Mean humidity ± SD in muscle” value [8, 11] was 82.96 ± 3.63% and the “Mean humidity ± SD in muscle” value [8, 12] was 83.5 ± 3.31%. The “Statistically difference, humidity in muscle” value ([8]; comparison I-II) was “(0.791)”, the “Statistically difference, protein concentration” value ([8]; comparison I-II, significant) was “(1.160)*” and the “Statistically difference, humidity in muscle” value [8, 13] was “(2.666)*”. For the same substance, the “Statistically difference, protein concentration” value [8, 13] was “(1.38)*”, the “Statistically difference, humidity in muscle” value [8, 15] was “(3.458)” and the “Statistically difference, protein concentration” value [8, 14] was “(2.64)*”. The “number of bone rostral” value [9, 16] was “increase”, the “number of gill ramifications” value [9, 16] was “increase” and the “increase of mean size” value [9, 17] was 26%. The “increase of mean weigh” value [9, 17] was 153%, the “relation Protein/DNA in muscle” value ([9]; all treated animals vs control) was “increased” and the “relation RNA/DNA in muscle” value ([9]; all treated animals vs control) was “increased”. For the same substance, the “water content in the muscle” value ([9]; all treated animals vs control) was “lower water content in the muscle”, the increase of size [10] was 37% and the “increase of survival rate of the larvae” value [10] was 20%. The increase of weigh [10] was 115%, the “uniformity of the animals” value [10] was “higher” and the “variation coefficient in weigh and size” value [10] was “lower”.
